Data taken from ChEMBL document CHEMBL1153520, “A multivalent approach to the design and discovery of orally efficacious 5-HT4 receptor agonists” (J Med Chem, 2009).

Experiments:
[1] = biological target: T1, 5-hydroxytryptamine receptor 4 (Homo sapiens, UniProt Q13639); assay: Displacement of [H]GR-113808 from human 5HT4C receptor expressed in HEK293 cells by liquid scintillation counting; format: cell-based
[2] = species: Homo sapiens; assay: Selectivity ratio of Ki for human 5HT3A receptor to Ki for human 5HT4C receptor
[3] = biological target: T1, 5-hydroxytryptamine receptor 4; assay: Agonist activity at human 5HT4C receptor expressed in HEK293 cells assessed as accumulation of cAMP by flash plate adenylyl cyclase activation assay; format: functional, cell-based
[4] = biological target: T1, 5-hydroxytryptamine receptor 4; assay: Intrinsic activity at human 5HT4C receptor expressed in HEK293 cells assessed as accumulation of cAMP by flash plate adenylyl cyclase activation assay relative to serotonin; format: functional, cell-based
[5] = biological target: hERG (KCNH2) (Homo sapiens, UniProt Q12809); assay: Inhibition of human ERG potassium channel expressed in CHO-K1 cells at 3 uM by whole cell voltage clamp assay; format: cell-based; settings: CHO-K1 cells expressing human ERG potassium channel
[6] = Permeability across human Caco-2 cells assessed as permeability coefficient; format: ADME, cell-based; settings: read-out: permeability
[7] = AUC (0 to t) in Sprague-Dawley rat at 5 mg/kg, po; format: ADME, organism-based; set-up: dose 5 mg/kg, route oral; settings: plasma
[8] = Cmax in Sprague-Dawley rat at 5 mg/kg, po; format: ADME, organism-based; set-up: dose 5 mg/kg, route oral; settings: in vivo
[9] = Half life in Sprague-Dawley rat at 5 mg/kg, po; format: ADME, organism-based; set-up: dose 5 mg/kg, route oral; settings: in vivo
[10] = Oral bioavailability in Sprague-Dawley rat at 5 mg/kg, po; format: ADME, organism-based; settings: in vivo
[11] = in vitro; settings: rat, liver microsomes
[12] = test system: Rattus norvegicus; assay: Induction of 5HT4 receptor-mediated relaxation of esophagus in iv dosed anesthetized Sprague-Dawley rat by digital sonomicrometry; format: functional
[13] = Oral bioavailability in human; format: ADME, organism-based; settings: in vivo

T1 sequence (Q13639 whole entry): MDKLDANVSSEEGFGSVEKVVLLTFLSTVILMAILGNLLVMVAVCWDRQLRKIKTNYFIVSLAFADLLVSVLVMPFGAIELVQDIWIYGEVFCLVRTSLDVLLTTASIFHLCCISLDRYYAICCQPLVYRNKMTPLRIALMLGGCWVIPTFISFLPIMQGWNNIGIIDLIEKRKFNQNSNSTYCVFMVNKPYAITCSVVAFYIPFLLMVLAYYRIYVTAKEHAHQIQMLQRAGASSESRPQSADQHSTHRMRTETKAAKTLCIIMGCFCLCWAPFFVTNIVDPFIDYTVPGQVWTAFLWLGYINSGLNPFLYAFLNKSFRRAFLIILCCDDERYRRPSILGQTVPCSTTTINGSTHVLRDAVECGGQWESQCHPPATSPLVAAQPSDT
Chain of hERG (KCNH2) (Q12809 whole entry): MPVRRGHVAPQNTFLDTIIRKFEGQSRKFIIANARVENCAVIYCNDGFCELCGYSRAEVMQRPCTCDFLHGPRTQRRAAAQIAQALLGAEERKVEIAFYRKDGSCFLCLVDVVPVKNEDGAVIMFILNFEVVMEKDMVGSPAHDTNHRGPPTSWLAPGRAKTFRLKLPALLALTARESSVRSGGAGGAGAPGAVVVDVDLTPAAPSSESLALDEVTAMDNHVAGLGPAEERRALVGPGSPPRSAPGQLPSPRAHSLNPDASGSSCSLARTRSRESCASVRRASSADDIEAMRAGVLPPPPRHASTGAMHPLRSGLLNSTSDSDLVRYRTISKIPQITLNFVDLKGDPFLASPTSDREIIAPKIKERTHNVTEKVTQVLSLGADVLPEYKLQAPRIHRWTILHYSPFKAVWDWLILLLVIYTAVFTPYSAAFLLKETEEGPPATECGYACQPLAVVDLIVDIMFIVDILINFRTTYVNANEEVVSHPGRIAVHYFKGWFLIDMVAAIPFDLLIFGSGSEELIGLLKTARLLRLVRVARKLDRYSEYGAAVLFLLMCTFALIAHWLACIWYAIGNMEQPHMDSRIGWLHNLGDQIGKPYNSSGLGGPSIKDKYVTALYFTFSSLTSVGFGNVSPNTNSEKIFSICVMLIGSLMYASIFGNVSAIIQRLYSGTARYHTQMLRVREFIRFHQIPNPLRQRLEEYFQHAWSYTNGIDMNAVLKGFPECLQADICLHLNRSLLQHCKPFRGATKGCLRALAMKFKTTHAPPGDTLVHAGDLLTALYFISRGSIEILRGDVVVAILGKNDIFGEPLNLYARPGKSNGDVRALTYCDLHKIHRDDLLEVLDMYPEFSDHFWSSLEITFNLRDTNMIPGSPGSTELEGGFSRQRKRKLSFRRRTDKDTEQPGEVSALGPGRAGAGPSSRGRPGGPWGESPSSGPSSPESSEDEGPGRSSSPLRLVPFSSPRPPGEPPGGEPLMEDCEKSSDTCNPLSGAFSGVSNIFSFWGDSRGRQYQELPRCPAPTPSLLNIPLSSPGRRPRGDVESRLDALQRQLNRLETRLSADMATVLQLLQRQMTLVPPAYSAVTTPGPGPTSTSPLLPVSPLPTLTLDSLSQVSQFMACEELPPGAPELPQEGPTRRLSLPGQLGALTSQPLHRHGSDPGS

With CC(C)n1c(=O)c(C(=O)N[C@H]2C[C@H]3CC[C@@H](C2)N3CCCN2CCN(S(C)(=O)=O)CC2)cc2ccccc21 the Ki [1] was 39.8 nM, the Ratio Ki [2] was 2300 and the EC50 [3] was 1.58 nM. For the same molecule, the Intrinsic activity [4] was over 100%, the inhibition at 3 µM [5] was 38% and the Papp [6] was 20 ×10⁻⁶ cm/s. The AUC(0-t) [7] was 183 ng·h/mL, the Cmax [8] was 34 ng/mL and the half-life [9] was 7.9 h. It also gave a bioavailability [10] of 38% and a half-life [11] of 0.683 h.
With CCCCCNC(=N)N/N=C/c1c[nH]c2ccc(OC)cc12 [TEGASEROD] the Papp [6] was 11 ×10⁻⁶ cm/s, the AUC(0-t) [7] was 21 ng·h/mL and the Cmax [8] was 6 ng/mL. The half-life [9] was 1.8 h, the bioavailability [10] was 5% and the ED50 [12] was 0.0106 mg/kg. The bioavailability [13] was 10% and the half-life [11] was over 1.5 h.
Work on COc1cc(N)c(Cl)cc1C(=O)NC1CCN(CCCOc2ccc(F)cc2)CC1OC (stereo unspecified) [CISAPRIDE] yielded an ED50 [12] of 0.142 mg/kg.
CC(C)n1c(=O)c(C(=O)N[C@H]2C[C@H]3CC[C@@H](C2)N3CCCN2CCN(c3ccccc3)CC2)cc2ccccc21 gave a Ki [1] of 7.94 nM, a Ratio Ki [2] of 1000 and an EC50 [3] of 0.794 nM. For the same molecule, the Intrinsic activity [4] was over 100%, the inhibition at 3 µM [5] was 90% and the Papp [6] was 22 ×10⁻⁶ cm/s.
With CC(C)n1c(=O)c(C(=O)N[C@H]2C[C@H]3CC[C@@H](C2)N3CCCCCCCN2CCN(S(C)(=O)=O)CC2)cc2ccccc21 the Ki [1] was 10 nM, the Ratio Ki [2] was 2600 and the EC50 [3] was 2.51 nM. The Intrinsic activity [4] was over 100%, the inhibition at 3 µM [5] was 46% and the Papp [6] was 22 ×10⁻⁶ cm/s. The AUC(0-t) [7] was 83 ng·h/mL, the Cmax [8] was 10 ng/mL and the half-life [9] was 20.3 h. It also gave a bioavailability [10] of 20% and a half-life [11] of over 1.5 h.
In the case of CC(C)n1c(=O)c(C(=O)N[C@H]2C[C@H]3CC[C@@H](C2)N3CC(O)CN2CCN(S(C)(=O)=O)CC2)cc2ccccc21 (mixture of isomers), the Ki [1] is reported as 20 nM, the Ratio Ki [2] is reported as 2400 and the EC50 [3] is reported as 0.794 nM. For the same molecule, the Intrinsic activity [4] was over 100%, the inhibition at 3 µM [5] was 10% and the Papp [6] was 19 ×10⁻⁶ cm/s.
CC(C)n1c(=O)c(C(=O)N[C@H]2C[C@H]3CC[C@@H](C2)N3CCCCCCCN2CCCCC2)cc2ccccc21 gave a Ki [1] of 2.51 nM, a Ratio Ki [2] of 10000 and an EC50 [3] of 0.794 nM. For the same molecule, the Intrinsic activity [4] was 90%, the inhibition at 3 µM [5] was 9% and the Papp [6] was 23 ×10⁻⁶ cm/s.
With CC(C)n1c(=O)c(C(=O)N[C@H]2C[C@H]3CC[C@@H](C2)N3CCCCCCCN2CCC(CNS(C)(=O)=O)CC2)cc2ccccc21 the Ki [1] was 2.51 nM, the Ratio Ki [2] was 3100 and the EC50 [3] was 0.631 nM. For the same molecule, the Intrinsic activity [4] was 98%, the inhibition at 3 µM [5] was 5% and the Papp [6] was 2 ×10⁻⁶ cm/s.
In the case of CC(C)n1c(=O)c(C(=O)N[C@H]2C[C@H]3CC[C@@H](C2)N3CCCCCCCN2CCN(c3ccccc3)CC2)cc2ccccc21, the Ki [1] is reported as 3.98 nM, the Ratio Ki [2] is reported as 5300 and the EC50 [3] is reported as 7.94 nM. The Intrinsic activity [4] was over 100%, the inhibition at 3 µM [5] was 97% and the Papp [6] was 20 ×10⁻⁶ cm/s.
